Data as given in US20220184091A1, “Methods of Treating Cancer with Chk1 Inhibitors” (Sierra Oncology, Inc., priority 2019, published 2022).

Assays:
[1] = tested on: HGSOC PDX, OVCAR3, Ep-Myc, MOLM-13, TH-MYC, MDA-MB-231, Renca, LL/2 models; experiment: In vivo efficacy of SRA737 as a single agent; design: species or system mouse
Experimental: A program of in vivo efficacy studies was performed to assess the activity of SRA737 in combination with genotoxic chemotherapy and targeted agents, and as monotherapy.
One of these models also carried a MYCN amplification. A fourth HGSOC PDX model with partial resistance to PARPi was also sensitive to high dose SRA737 monotherapy.

[2] = biological target: T1, Chk1 S296 autophosphorylation (Homo sapiens, UniProt O14757); experiment: Gemcitabine-induced Chk1 S296 autophosphorylation in HT29 tumor xenografts (western blotting); assay type: in vivo, mouse; conditions: mice bearing HT29 xenografts; oral, 24 hours after gemcitabine 100 mg/kg IV
T1 construct: mice bearing HT29 tumor xenografts were administered; endogenous in cells; host or cells: HT29 human colon cancer xenografts in mice
Experimental: The effect of SRA737 on Gemcitabine induced Chk1 S296 autophosphorylation was assessed as described in Walton et al. (Oncotarget. 2016 Jan. 19; 7(3): 2329-2342), herein incorporated by reference for all it teaches. Briefly, mice bearing HT29 tumor xenografts were administered (i) vehicle control or (ii) gemcitabine (100 mg/kg in saline, IV) or (iii) a combination of SRA737 (12.5, 25, 50 or 100 mg/kg in DTPW, oral) and gemcitabine (100 mg/kg) with SRA737 administered 24 hours following gemcitabine administration (n=3 per time point per treatment). […] Exposure in the tumor was greater than 10-fold higher than in plasma. The circulating plasma concentration at this 24-hour timepoint corresponded to a free drug concentration of approximately 6 nM (2 ng/mL) based on plasma protein binding in mice of 94%.

[3] = Phase 1 clinical study, SRA737 in combination with gemcitabine, dose escalation; assay type: in vivo; conditions: human, mean
Experimental: A Phase 1 clinical trial was conducted in ‘all comers,’ i.e. no genetic selection was performed, to establish safety, tolerability and pharmacokinetics for SRA737 administered in combination with gemcitabine (“Dose Escalation Phase”). Cohorts consisting initially of a single subject received escalating doses of SRA737, starting in Cohort 1 with 40 mg/day administered orally on days 2, 3, 9, 10, 16, and 17 of each 28-day cycle. Cohorts also received various doses of gemcitabine, starting in Cohort 1 with 300 mg/m^2/day administered IV over 30 minutes on days 1, 8, and 15 of each 28-day cycle.
FIG. 5 presents a summary of dosing amounts for the cohorts tested. In the Dose Escalation Phase, a total of 55 subjects received SRA737 in 13 dose escalation cohorts at doses of 40 to 600 mg SRA737 combined with LDG doses of 50 to 300 mg/m^2.

[4] = tested on: NSCLC cancer lines (A549, Calu1, Calu6, H1299, H1573, H1944, H1993); experiment: Cell viability, NSCLC cancer lines; assay type: cell-based; conditions: read-out: IC50 range
H69 = experiment: Micronuclei assay, H69; assay type: cell-based, human; conditions: 1 μM, 24 hours or 48 hours
Experimental: (§1) H69 cells were cultured as discussed earlier and treated with or without SRA737 (1 μM). Cytochalasin B was added at 20th hour to each culture to give a final concentration of 3 μg/ml and the culture was incubated at 37° C. for up to 24 hrs. After 24 hrs incubation, the cells were centrifuged at 1000 rpm for 5 min. The supernatant was removed and the pellet was treated with weak hypotonic solution (0.075 M KCl/0.9% Saline, 1:9) and incubated at 37° C. for 5 min. After this, the cells were centrifuged and the pellets were fixed in fresh fixative (methanol:acetic acid, 3:1). Cells were dropped onto glass slides were prepared and stained with ProLong® Gold Antifade Mountant with DAPI. In the case of EMT-6 cells, micronuclei formation assays were performed at Phenovista Biosciences, San Diego. The cells were treated with either 1 μM or 5 μM SRA737 for 24h followed by mixing with 4% PFA for 20 minutes at RT directly in the culture wells, washing with PBS and staining with Hoechst (1:1000). The plates were imaged at 40× using the Thermo Fisher Scientific CellInsight CX7 imaging system and the micronuclei algorithm was adjusted to score all nuclei that are <55% of the size of the main nucleus. A total of 25 fields per well were imaged and the data was averaged across 8 replicates.
(§2) SRA737 was also evaluated for induced cytogenetic stress using a micronuclei (MN) assay.

EMT6/P = experiment: Micronuclei assay, EMT6/P; assay type: cell-based; conditions: 1 μM, 24 hours or 48 hours
Experimental: as §1, §2

STING pathway = experiment: Western blot of STING pathway markers in SCLC cell lines; assay type: cell-based; conditions: H1694 and H847 cell lines; 1 μM; 24 and 72 hours
Experimental: Western blot analysis was performed using SDS-PAGE followed by transfer to nitrocellulose membrane using the BioRad Gel system. Membranes were incubated in the following primary antibodies (1:1000) overnight: PD-L1 (CST), total and phospho- (S366) STING (CST), total and phospho- (S396) IRF3 (CST), phospho-YH2AX (CST) and Actin (Sigma). Secondary anti-rabbit, HRP-linked antibodies were purchased from Cell Signaling Biosciences and detected using the Chemidoc imaging system mage-captured with Image Studio Version 3.1 software.

RPP tumor = experiment: Flank RPP (SCLC) tumor growth in B6129F1 immunocompetent mice; assay type: in vivo, mouse; conditions: anti-PD-L1 300 μg 1-day-on/6-days-off
Experimental: Tumors were evaluated twice weekly for the duration of the study. Tumor volumes were measured on all mice three times per week and calculated (width^2×length×0.4) using manual calipers. Once the average tumor size was in the range of 120-150 mm^3, mice were randomized into dosing groups using stratified sampling by assigning three animals per group for short-term reverse-phase protein array analysis and long-term treatment. Dosing schedules and duration varied depending on the study. Mice were weighed three times per week for the duration of the study, and a decrease in body weight >15% was considered indicative of a toxic dose. The Student t-test was used to determine statistical significance between compound- and vehicle-treated groups.
[…] 15A.

[5] = 600 mg, Day 10, combination with gemcitabine

T1 sequence (O14757 whole entry): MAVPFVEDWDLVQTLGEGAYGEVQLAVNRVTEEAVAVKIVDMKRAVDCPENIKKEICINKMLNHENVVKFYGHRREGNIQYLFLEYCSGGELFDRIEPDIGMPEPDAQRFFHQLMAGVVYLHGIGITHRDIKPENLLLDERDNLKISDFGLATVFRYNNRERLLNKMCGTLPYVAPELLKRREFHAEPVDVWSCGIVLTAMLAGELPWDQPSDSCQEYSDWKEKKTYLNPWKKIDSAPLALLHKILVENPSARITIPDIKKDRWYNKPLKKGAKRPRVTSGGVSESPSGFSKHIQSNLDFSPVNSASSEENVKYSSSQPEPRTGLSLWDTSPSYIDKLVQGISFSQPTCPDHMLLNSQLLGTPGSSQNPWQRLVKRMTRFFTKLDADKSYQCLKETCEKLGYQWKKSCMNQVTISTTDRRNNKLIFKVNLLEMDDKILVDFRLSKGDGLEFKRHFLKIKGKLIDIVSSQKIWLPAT

- SRA737 doses at which inhibition of pS296 Chk1 was observed [2]: greater than or equal to 12.5 mg/kg
- AUC0-24 ([3]; 40 mg, Day −7): 637 ng·h/mL
- Cmax ([3]; 80 mg, Day −7): 146 ng/mL
- Cmax ([3]; 300 mg, Day −7): 995 ng/mL
- AUC0-12 [3, 5]: 11,860 ng · h/mL
- Cmax [3, 5]: 2,109 ng/mL
- T1/2 ([3]; 600 mg, Day −7): 11.1 h
- IC50 [4]: ≥ 800 nM
SMILES: N#Cc1cnc(Nc2cc(NCC3CNCCO3)c(C(F)(F)F)cn2)cn1 (stereo not drawn) [SRA737, 5-[[4-[[morpholin-2-yl]methylamino]-5-(trifluoromethyl)-2-pyridyl]amino]pyrazine-2-carbonitrile]
- sensitivity to high dose monotherapy ([1]; fourth HGSOC PDX model with partial resistance to PARPi): sensitive
- antitumor activity as a single agent ([1]; several HGSOC PDX models with CCNE1 amplifications and TP53 mutations, data not shown): Significant antitumor activity
- micronuclei formation (H69): led to micronuclei formation
- micronuclei formation (EMT6/P): led to micronuclei formation
- STING pathway (pSTING_S366, STING, pIRF3_S396 and IRF3) (STING pathway): Activation of the STING pathway
- anti-tumor response (tumor growth) (RPP tumor; SRA737 100 mg/kg 3-days-on/4-days-off or 5-days-on/2-days-off): significant reduction in tumor growth
- anti-tumor effect (tumor volume) (RPP tumor; LDG 40 mg/kg 1-day-on/6-days-off, SRA737 100 mg/kg 2-day-on/5-days-off): no significant anti-tumor effect
